Experimental data published in patent US8367831B2, “Heterocyclic compound or salt thereof and intermediate thereof” (priority 2006, dated 2013).
Values after ≈ are worked out from the molar mass of the structure shown. Counter-ions that a name gives are not always drawn. Like-named read-outs stand apart in the source and are kept apart here.

Legend:
S. aureus F-3095 = assay: Susceptibility test 1: MIC by micro-dilution method; type: cell-based; settings: Staphylococcus aureus
Experimental: (§1) Test substances were initially dissolved in dimethylsulfoxide. Antibacterial activities (MICs) of the same compounds were determined by the micro-dilution method as recommended by the Japanese Society of Chemotherapy.
(§2) The bacteria cultured on Mueller-Hinton agar (MHA) plates at 35° C. overnight were suspended in sterile physiological saline in a concentration that was equivalent to 0.5 McFarland. The bacterial inoculum was prepared by 10-fold dilution of this suspension. Approximately 0.005 mL of the bacterial inoculum was inoculated into Cation-adjusted Mueller-Hinton broth (CAMHB, 100 μL/well) containing the test substance and was incubated at 35° C. overnight. The lowest concentration of the test substance at which no bacterial growth was macroscopically observed was determined as the MIC.

S. aureus FDA209P = assay: as above; type: cell-based; settings: Staphylococcus aureus, read-out: MIC (μg/mL) S. aureus FDA209P
Experimental: as §1, §2

[1] = test system: Staphylococcus aureus (S. aureus Smith); assay: S. aureus infection experiment in mice; type: in vivo; settings: ICR mice, five per group, intraperitoneal infection, 1 hour after infection
Experimental: ICR mice (male, SPF grade, 4-week old, five mice per group) were used. A bacterial inoculum was prepared by suspending Staphylococcus aureus (S. aureus
Smith), which was cultured on a Mueller-Hinton agar plate at 37° C. overnight, in sterile physiological saline, preparing a bacterial solution of about 4×10^8 CFU/mL, and diluting the solution 10-fold in 5.6% mucin-phosphate buffer. ICR mice were intraperitoneally administered with the bacterial inoculum (approximately 2×10^7 CFU/mouse) to induce infection. Test substances were dissolved in 10% hydroxypropyl-β-cyclodextrin and 0.05 mol/L hydrochloric acid. […] The number of surviving mice was recorded on 5 days after the infection.

[2] = Antimicrobial activity (general statement); settings: qualitative statement, no comparator named
[3] = Safety (general statement); settings: qualitative statement, no comparator named
Source text: The compound of the general formula [1] of the present invention has excellent safety. The safety can be evaluated by various tests, for example, by various types of safety tests selected from a cytotoxicity test, a selectivity test against DNA gyrase of human and various bacteria, a selectivity test against topoisomerase IV of human and various bacteria, an hERG test, a repeat-dose toxicity test, a cytochrome P450 (CYP) activity inhibition test, a metabolic dependence inhibition test, an in vivo mouse micronucleus test, an in vivo rat liver UDS test, and the like.

[4] = Metabolic stability (general statement); type: in vitro ADME; settings: qualitative statement, no comparator named
Source text: The compound of the general formula [1] of the present invention has excellent metabolic stability. The metabolic stability can be evaluated by various tests, for example, by various types of stability tests selected from a human liver microsome metabolic stability test, a human S9 stability test, and the like.

[5] = Tissue distribution (general statement); settings: qualitative statement, no comparator named
Cytotoxicity test (XTT) = type: cell-based; settings: African green monkey, vero cells, 3 days incubation, absorbance 450 nm, read-out: CC50 (concentration when cell proliferation was inhibited by 50%)
Experimental: Each test substance was dissolved in dimethyl sulfoxide and was prepared to each concentration with E-MEM containing 10% FBS, and then 0.1 mL of this solution was dispensed into each well of a 96-well microplate. A vero cell suspension containing 3×10^4 cells/mL was prepared with E-MEM containing 10% FBS, and 0.1 mL of the suspension was inoculated to each well. After incubation in 5% CO2 at 37° C. for 3 days, 50 μL of E-MEM containing 1 mg/mL of 2,3-bis-(2-methoxy-4-nitro-5-sulfophenyl)-5-[(phenylamino)carbonyl]-2H-tetrazolium, inner salt, monosodium salt (XTT) and 25 μM of phenazine methosulfate (PMS) was added to each well. After about 2 hours, the absorbance at 450 nm was measured with a microplate reader.
The absorbance ratio of each well supplied with the test substance and the control not containing the test substance was calculated, and the concentration of each compound when cell proliferation was inhibited by 50% (CC50; μg/mL) was calculated.

[6] = Hygroscopicity of the salt (statement); type: physicochemical; settings: trihydrochloride salt
[7] = F3095, read-out: MIC (μg/mL) S. aureus F-3095
[8] = F3095, F-3095 (MDRSA), CAMHB, 35° C. overnight, lowest concentration with no macroscopic growth, read-out: MIC (μg/mL) S. aureus F-3095
[9] = CAMHB, 35° C. overnight, lowest concentration with no macroscopic growth

Structure (SMILES) | MIC (S. aureus F-3095; [7]) | MIC (S. aureus FDA209P) | number of surviving mice on 5 days after the infection ([1]; 3 mg/kg subcutaneously once) | antimicrobial activity [2] | safety [3] | metabolic stability [4] | tissue distribution [5] | CC50 at 3 days (Cytotoxicity test (XTT)) | number of surviving mice on 5 days after the infection ([1]; 1 mg/kg subcutaneously once) | MIC (S. aureus F-3095; [8]) | MIC (S. aureus FDA209P; [9]) | hygroscopicity [6]
O=c1ccc2ncc(OC(F)F)cc2n1CCN1CCC(NCc2cc3c(cn2)OCCO3)CC1 [Example 151, 7-(difluoromethoxy)-1-(2-(4-((2,3-dihydro(1,4)dioxino(2,3-c)pyridin-7-ylmethyl)amino)piperidin-1-yl)ethyl)-1,5-naphthyridin-2(1H)-one hydrochloride] | 0.125 µg/mL | 0.0313 µg/mL | all mice |  |  |  |  |  |  |  |  | 
COc1cnc2ccc(=O)n(CCN3CCC(NCc4cc5c(cn4)OCCO5)CC3)c2c1 [Example 2, 1-(2-(4-((2,3-dihydro(1,4)dioxino(2,3-c)pyridin-7-ylmethyl)amino)piperidin-1-yl)ethyl)-7-methoxy-1,5-naphthyridin-2(1H)-one hydrochloride] | 0.0313 µg/mL | 0.0313 µg/mL | all mice | higher | higher | higher | higher | ≥ 51.2 µg/mL |  |  |  | 
COc1cnc2c(C)cc(=O)n(CCN3CCC(NCc4cc5c(cn4)OCCO5)CC3)c2c1 [Example 149, 1-(2-(4-((2,3-dihydro(1,4)dioxino(2,3-c)pyridin-7-ylmethyl)amino)piperidin-1-yl)ethyl)-7-methoxy-4-methyl-1,5-naphthyridin-2(1H)-one hydrochloride] | 0.0313 µg/mL | 0.0313 µg/mL | all mice |  |  |  |  |  |  |  |  | 
COc1cnc2ccc(=O)n(CCN3CCC(NCc4cc5c(cn4)OCCO5)CC3)c2n1 [Example 85, 5-(2-(4-((2,3-dihydro(1,4)dioxino(2,3-c)pyridin-7-ylmethyl)amino)piperidin-1-yl)ethyl-3-methoxypyrido(2,3-b)pyrazin-6(5H)-one hydrochloride] | 0.0313 µg/mL | 0.0313 µg/mL |  | higher | higher | higher | higher | ≥ 51.2 µg/mL | four mice out of five |  |  | 
O=c1ccc2ncc(F)cc2n1CCN1CCC(NCc2cc3c(cn2)OCCO3)CC1 [Example 4, 1-(2-(4-((2,3-dihydro(1,4)dioxino(2,3-c)pyridin-7-ylmethyl)amino)piperidin-1-yl)ethyl)-7-fluoro-1,5-naphthyridin-2(1H)-one hydrochloride] | 0.0313 µg/mL | 0.0313 µg/mL | all mice | higher | higher | higher | higher | ≥ 51.2 µg/mL |  |  |  | 
COc1cnc2ccc(=O)n(CCN3CCC(NCc4cnc(C)c(F)c4)CC3)c2c1 [Example 93, 1-(2-(4-(((5-fluoro-6-methylpyridin-3-yl)methyl)amino)piperidin-1-yl)ethyl)-7-methoxy-1,5-naphthyridin-2(1H)-one] |  |  | all mice |  |  |  |  | ≥ 51.2 µg/mL |  | 0.0313 µg/mL (≈ 0.0736 µM) | 0.0625 µg/mL (≈ 0.147 µM) | 
Cl.Cl.Cl.O=c1ccc2ncc(F)cc2n1CCN1CCC(NCc2cc3c(cn2)OCCO3)CC1 [1-(2-(4-((2,3-dihydro(1,4)dioxino(2,3-c)pyridin-7-ylmethyl)amino)piperidin-1-yl)ethyl)-7-fluoro-1,5-naphthyridin-2(1H)-one trihydrochloride] |  |  |  |  |  |  |  |  |  |  |  | nonhygroscopic
COc1cnc2ncc(=O)n(CCN3CCC(NCc4cc5c(cn4)OCCO5)CC3)c2c1 [Example 68, 1-(2-(4-((2,3-dihydro(1,4)dioxino(2,3-c)pyridin-7-ylmethyl)amino)piperidin-1-yl)ethyl)-7-methoxypyrido(2,3-b)pyrazin-2(1H)-one hydrochloride] |  |  | all mice |  |  |  |  | ≥ 51.2 µg/mL |  |  |  | 
O=c1ccc2ncc(Cl)cc2n1CCN1CCC(NCc2cc3c(cn2)OCCO3)CC1 [Example 77, 7-chloro-1-(2-(4-((2,3-dihydro(1,4)dioxino(2,3-c)pyridin-7-ylmethyl)amino)piperidin-1-yl)ethyl)-1,5-naphthyridin-2(1H)-one hydrochloride] | 0.0625 µg/mL | 0.0313 µg/mL | all mice | higher | higher | higher | higher | ≥ 51.2 µg/mL |  |  |  | 
COc1cnc2ccc(=O)n(CCC3(O)CCC(NCc4cc5c(cn4)OCCO5)CC3)c2n1 (stereo not shown) [Example 119B, 5-(2-(4-((2,3-dihydro(1,4)dioxino(2,3-c)pyridin-7-ylmethyl)amino)-1-hydroxycyclohexyl)ethyl)-3-methoxypyrido(2,3-b)pyrazin-6(5H)-one] |  |  | all mice |  |  |  |  |  |  | 0.0625 µg/mL (≈ 0.134 µM) | 0.0625 µg/mL (≈ 0.134 µM) | 
COc1cnc2ccc(=O)n(CCN3CCC(NCc4cc(-c5ccco5)on4)CC3)c2c1 [Example 140, 1-(2-(4-(((5-(2-furyl)isoxazol-3-yl)methyl)amino)piperidin-1-yl)ethyl)-7-methoxy-1,5-naphthyridin-2(1H)-one] |  |  | all mice |  |  |  |  |  |  | 0.0156 µg/mL (≈ 0.0347 µM) | 0.0156 µg/mL (≈ 0.0347 µM) | 
O=c1ccc2ncc(F)cc2n1CCN1CCC(NCc2cc3c(cn2)OCCC3)CC1 [Example 103, 1-(2-(4-((3,4-dihydro-2H-pyrano(2,3-c)pyridin-6-ylmethyl)amino)piperidin-1-yl)ethyl)-7-fluoro-1,5-naphthyridin-2(1H)-one hydrochloride] | 0.0625 µg/mL | 0.0625 µg/mL | all mice |  |  |  |  | ≥ 51.2 µg/mL |  |  |  | 
